Results as given in US20130089601A1, “METHOD FOR TREATING ATHEROSCLEROSIS” (KAOHSIUNG MEDICAL UNIVERSITY, priority 2009, published 2013).

Assays:
[1] = tested on: endogenous microRNA-195; experiment: Endogenous microRNA-195 in VSMC by quantitative real-time PCR, normalized to U44; format: cell-based, human; conditions: ox-LDL and simvastatin 1 nM for 24 hours
Method: Quantitative real-time PCR was performed in an ABI PRIZM 7500 sequence detection system in triplicates. The typical amplification program was carried out in a 20 μl reaction with a primer at a final concentration of 300 nM and probes of 200 nM. Serial dilutions of the control cDNA for generating standard curves ran in duplicate. Real-time PCR results were analyzed using ABI PRISM 7500 SDS software. Relative differences of microRNAs were quantified using the […] method. For graphical presentation, the 2^−ΔΔCt transformation was used according to the ABI user bulletin version #2. Expression values were depicted relatively to the value at baseline which was the earliest time point present in all the experiments.

[2] = tested on: VSMC cells; experiment: Chemotactic migration of VSMC (Transwell); format: cell-based, human; conditions: 100 nM for 24 hours, ox-LDL 40 μg/ml
Method: Chemotactic migration is another characteristic of atherosclerosis and can be used as another line of evidence of atherosclerotic change for the cultured VSMC cells. This experiment was assayed by using a microchemotactic chamber and polycarbonate filters with pores of […] in diameter (Transwell, Millipore). After incubated with microRNA-195 (Pre-miR miRNA, hsa-miR-195 (product ID PM10827), Ambion Inc.) (100 nM) or an inhibitor (100 nM) for 24 hours, the VSMC cells were trypsinized and suspended with a serum free medium. A volume (300 μl) of a 1×10^4 cell suspension was placed in the upper chamber, the medium containing ox-LDL (40 μg/ml, each) was placed in the lower and upper chamber. The cell suspension was incubated at a temperature of 37° C. under 5% CO2 in air for 24 hours. After incubation, the VSMC cells on the upper side of the filter were scraped off, and the cells that had directly migrated to the lower side of the filter were trypsinized. The cells were fixed with methanol and stained with a Giemsa solution (Merck). Quantification of chemotactic migration was performed using the hemocytometer.

CCC(C)(C)C(=O)O[C@H]1C[C@@H](C)C=C2C=C[C@H](C)[C@H](CC[C@@H]3C[C@@H](O)CC(=O)O3)[C@H]21 [simvastatin]
endogenous microRNA-195 decrease versus ox-LDL-stimulated cells [1]: > 0.68 fold

microRNA-195 inhibitor: 5′-GCCAATATTTCTGTGCTGCTA-3′ (SEQ ID NO: 6), Ambion; used to specifically bind to and inhibit endogenous microRNA-195 (listed as DNA, chemistry not given here) [reference compound]
chemotactic migration, percentage of migrated cells compared to control medium cells [2]: 233.7%
